Measurements: the kinase profiling compilation of Christmann-Franck et al. (2016)

Key:
Test in all cases: radiometric filter-binding kinase assay
AURKB (human) = AURKB (human) (UniProt Q96GD4)
SYK (human) = SYK (human) (UniProt P43405); settings: compound 10.0 µM
RPS6KA3 KD1 KD2 (human) = RPS6KA3 KD1 KD2 (human) (UniProt P51812)
PHKG1 (human) = PHKG1 (human) (UniProt Q16816); settings: compound 10.0 µM
Chain of PHKG1 (human) (Q16816 whole entry, looked up): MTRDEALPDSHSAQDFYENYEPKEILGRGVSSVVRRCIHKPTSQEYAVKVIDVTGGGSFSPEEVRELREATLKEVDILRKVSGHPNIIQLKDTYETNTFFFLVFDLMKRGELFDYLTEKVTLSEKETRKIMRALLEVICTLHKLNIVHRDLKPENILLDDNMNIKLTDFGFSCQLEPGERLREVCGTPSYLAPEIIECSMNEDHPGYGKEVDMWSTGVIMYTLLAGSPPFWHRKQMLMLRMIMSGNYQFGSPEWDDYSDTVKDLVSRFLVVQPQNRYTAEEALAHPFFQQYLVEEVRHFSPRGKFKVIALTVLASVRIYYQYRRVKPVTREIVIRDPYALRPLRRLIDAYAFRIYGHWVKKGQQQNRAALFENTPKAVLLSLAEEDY

Chain of AURKB (human) (Q96GD4 whole entry, looked up): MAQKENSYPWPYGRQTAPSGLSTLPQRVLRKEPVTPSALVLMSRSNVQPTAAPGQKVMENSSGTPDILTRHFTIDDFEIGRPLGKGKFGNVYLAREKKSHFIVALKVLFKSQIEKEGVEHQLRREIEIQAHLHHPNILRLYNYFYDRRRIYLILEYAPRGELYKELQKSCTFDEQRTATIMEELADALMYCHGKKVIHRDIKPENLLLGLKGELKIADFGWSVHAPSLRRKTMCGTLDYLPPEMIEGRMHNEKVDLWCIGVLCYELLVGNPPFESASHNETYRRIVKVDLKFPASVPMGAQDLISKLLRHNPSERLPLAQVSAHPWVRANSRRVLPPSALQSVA
Chain of RPS6KA3 KD1 KD2 (human) (P51812 whole entry, looked up): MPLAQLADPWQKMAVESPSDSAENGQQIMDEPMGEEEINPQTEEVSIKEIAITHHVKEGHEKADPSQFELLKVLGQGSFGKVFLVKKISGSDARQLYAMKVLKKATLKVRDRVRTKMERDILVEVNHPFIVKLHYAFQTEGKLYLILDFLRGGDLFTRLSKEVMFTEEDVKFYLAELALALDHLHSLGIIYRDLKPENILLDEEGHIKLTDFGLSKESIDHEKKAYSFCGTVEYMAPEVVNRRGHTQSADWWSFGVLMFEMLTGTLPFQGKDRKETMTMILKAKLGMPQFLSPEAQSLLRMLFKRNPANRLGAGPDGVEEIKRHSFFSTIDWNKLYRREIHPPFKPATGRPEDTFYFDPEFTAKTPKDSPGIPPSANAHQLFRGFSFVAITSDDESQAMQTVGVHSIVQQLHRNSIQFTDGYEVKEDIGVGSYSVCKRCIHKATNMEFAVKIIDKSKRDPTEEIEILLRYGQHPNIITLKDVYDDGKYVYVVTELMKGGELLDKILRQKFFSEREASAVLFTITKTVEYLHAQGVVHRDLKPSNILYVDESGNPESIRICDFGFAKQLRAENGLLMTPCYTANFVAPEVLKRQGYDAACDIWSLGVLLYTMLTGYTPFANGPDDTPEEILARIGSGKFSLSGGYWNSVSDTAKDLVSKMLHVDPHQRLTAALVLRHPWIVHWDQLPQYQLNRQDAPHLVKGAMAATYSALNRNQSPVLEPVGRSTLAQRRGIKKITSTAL

Row | residual activity (AURKB (human); compound 1.0 µM) [%] | residual activity (AURKB (human); compound 10.0 µM) [%] | residual activity (SYK (human)) [%] | residual activity (RPS6KA3 KD1 KD2 (human); compound 10.0 µM) [%] | residual activity (RPS6KA3 KD1 KD2 (human); compound 100.0 µM) [%] | residual activity (AURKB (human); compound 100.0 µM) [%] | residual activity (PHKG1 (human)) [%] | SMILES
1 | 15 | 13 |  |  |  |  |  | O=C1c2ccccc2-c2n[nH]c3cccc1c23
2 |  | 70 | 100 | 50 | 10 | 3 | 54 | Cc1nc(N)sc1-c1csc(Nc2cccnc2)n1
